Read-outs that look alike come from different tables or passages of the source.
Legend:
capillary permeability = assay: Capillaroprotecting effects: capillary permeability; format: in vivo, conventional male Wistar rats
Experimental: (§1) Capillaroprotecting effects
The capillary permeability was determined by the method of Charlier et al, Arch. Inter. Physiol.

capillary resistance = assay: Capillaroprotecting effects: capillary resistance; format: in vivo, male OFA EOPS rats
Experimental: as §1
The capillary resistance was determined by a variant of the method of Charlier et al, Arch. Inter. Physiol.

carragenin edema = assay: Anti-inflammatory activity: carragenin edema test; format: in vivo; conditions: for % inhibition of carragenin edema: borate buffer pH 7, 24 h; for inhibition in vivo at 35 mg/kg / inhibition in vivo at 40 mg/kg / inhibition in vivo at 75 mg/kg / inhibition in vivo at 100 mg/kg / inhibition in vivo at 200 mg/kg: Rattus norvegicus, ip
Outline: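 Male Wistar EOPS rats receive 0.1 ml of 5% carragenin suspension in physiological serum into the hind-paw metatarsal muscle, with test substance given i.p. in neutralized solution at the same time. Paw edema is measured by plethysmometry at several times after carragenin and reported as % inhibition against pH-matched physiological serum controls.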

Aldose Reductase = biological target: T1, Aldose Reductase (Bos taurus, UniProt P16116); assay: Inhibition of aldose reductase in vitro (enzyme from beef eye lenses, glyceraldehyde substrate); format: biochemical; conditions: in DMF solution, read-out: percentages of inhibition (aldose reductase)
T1 construct: The enzyme is extracted from beef eye lenses; from tissue; host or cells: beef eye lenses
Text: Inhibition of Aldose Reductase In Vitro
The reoxidation of NADPH coupled to the enzymatic reaction was followed spectrophotometrically at 340 nm.

Solubilities in water = format: physicochemical; conditions: water; read-out: Solubilities in water

With C[C@@H]1O[C@@H](OC[C@H]2O[C@@H](Oc3c(-c4ccc(O)c(O)c4)oc4cc(O)cc(O)c4c3=O)[C@H](O)[C@@H](O)[C@@H]2O)[C@@H]2OC3(CCCCC3)O[C@@H]2[C@H]1O [No. 6, 3-O-(2,3-O,O-cyclohexylidene-6-α-L-rhamnosyl-β-D-glucosyl)-quercitin] the “percentage reduction of capillary permeability” value (from here on “percentage reduction”) (capillary permeability; 50 mg/kg i.p.) was 21%, the “percentage reduction” value (capillary permeability; 100 mg/kg i.p.) was 20% and the “percentage reduction” value (capillary permeability; 200 mg/kg i.p.) was 23%. The “% of animals for which the effect is ≥ 25 u cm Hg/h” value (“% of animals” for short) (capillary resistance; 50 mg/kg i.p.) was 30%, the “capillary resistance, effect observed” value (capillary resistance; 50 mg/kg i.p.) was 19.75 ± 10.2 u cm Hg/h and the “% of animals” value (capillary resistance; 100 mg/kg i.p.) was 40%. For the same compound, the “capillary resistance, effect observed” value (capillary resistance; 100 mg/kg i.p.) was 25.5 ± 13.2 u cm Hg/h, the “% of animals” value (capillary resistance; 200 mg/kg i.p.) was 90% and the “capillary resistance, effect observed” value (capillary resistance; 200 mg/kg i.p.) was 37.75 ± 12.9 u cm Hg/h. The “% inhibition of carragenin edema” value (carragenin edema; 35 mg/kg i.p.) was 27%, the “% inhibition of carragenin edema” value (carragenin edema; 75 mg/kg i.p.) was 21% and the “% inhibition of carragenin edema” value (carragenin edema; 100 mg/kg i.p.) was 37%. The “% inhibition of carragenin edema” value (carragenin edema; 200 mg/kg i.p.) was 0%, the inhibition in vivo at 35 mg/kg (carragenin edema; 1 h, pH 7, read-out: % inhibition of carragenin edema, 35 mg/kg i.p., borate buffer pH 7, 1 h) was 32% and the inhibition in vivo at 35 mg/kg (carragenin edema; 1 h, pH 7, read-out: % inhibition of carragenin edema, 35 mg/kg i.p., borate buffer pH 7, 1 h 1/2) was 23%. The inhibition in vivo at 40 mg/kg (carragenin edema; 1 h, pH 7, read-out: % inhibition of carragenin edema, 40 mg/kg i.p., borate buffer pH 7, 1 h) was 23%, the inhibition in vivo at 40 mg/kg (carragenin edema; 1 h, pH 7, read-out: % inhibition of carragenin edema, 40 mg/kg i.p., borate buffer pH 7, 1 h 1/2) was 11% and the inhibition in vivo at 75 mg/kg (carragenin edema; 1 h, pH 7, read-out: % inhibition of carragenin edema, 75 mg/kg i.p., borate buffer pH 7, 1 h) was 9%. It also gave an inhibition in vivo at 75 mg/kg (carragenin edema; 1 h, pH 7, read-out: % inhibition of carragenin edema, 75 mg/kg i.p., borate buffer pH 7, 1 h 1/2) of 3%, an inhibition in vivo at 100 mg/kg (carragenin edema; 1 h, pH 7, read-out: % inhibition of carragenin edema, 100 mg/kg i.p., borate buffer pH 7, 1 h) of 20% and an inhibition in vivo at 100 mg/kg (carragenin edema; 1 h, pH 7, read-out: % inhibition of carragenin edema, 100 mg/kg i.p., borate buffer pH 7, 1 h 1/2) of 9%. The inhibition in vivo at 200 mg/kg (carragenin edema; 1 h, pH 7, read-out: % inhibition of carragenin edema, 200 mg/kg i.p., borate buffer pH 7, 1 h) was 19%, the inhibition in vivo at 200 mg/kg (carragenin edema; 1 h, pH 7, read-out: % inhibition of carragenin edema, 200 mg/kg i.p., borate buffer pH 7, 1 h 1/2) was 2% and the inhibition in vivo at 35 mg/kg (carragenin edema; 2 h, pH 7, read-out: % inhibition of carragenin edema, 35 mg/kg i.p., borate buffer pH 7, 2 h) was 33%. It also gave an inhibition in vivo at 40 mg/kg (carragenin edema; 2 h, pH 7, read-out: % inhibition of carragenin edema, 40 mg/kg i.p., borate buffer pH 7, 2 h) of 7%, an inhibition in vivo at 75 mg/kg (carragenin edema; 2 h, pH 7, read-out: % inhibition of carragenin edema, 75 mg/kg i.p., borate buffer pH 7, 2 h) of 14% and an inhibition in vivo at 100 mg/kg (carragenin edema; 2 h, pH 7, read-out: % inhibition of carragenin edema, 100 mg/kg i.p., borate buffer pH 7, 2 h) of 1%. The inhibition in vivo at 200 mg/kg (carragenin edema; 2 h, pH 7, read-out: % inhibition of carragenin edema, 200 mg/kg i.p., borate buffer pH 7, 2 h) was 4%, the inhibition in vivo at 35 mg/kg (carragenin edema; 3 h, pH 7, read-out: % inhibition of carragenin edema, 35 mg/kg i.p., borate buffer pH 7, 3 h) was 9% and the inhibition in vivo at 40 mg/kg (carragenin edema; 3 h, pH 7, read-out: % inhibition of carragenin edema, 40 mg/kg i.p., borate buffer pH 7, 3 h) was 2%. For the same compound, the inhibition in vivo at 75 mg/kg (carragenin edema; 3 h, pH 7, read-out: % inhibition of carragenin edema, 75 mg/kg i.p., borate buffer pH 7, 3 h) was 17%, the inhibition in vivo at 100 mg/kg (carragenin edema; 3 h, pH 7, read-out: % inhibition of carragenin edema, 100 mg/kg i.p., borate buffer pH 7, 3 h) was 2% and the inhibition in vivo at 200 mg/kg (carragenin edema; 3 h, pH 7, read-out: % inhibition of carragenin edema, 200 mg/kg i.p., borate buffer pH 7, 3 h) was 0%. It also gave an inhibition in vivo at 35 mg/kg (carragenin edema; 4 h, pH 7, read-out: % inhibition of carragenin edema, 35 mg/kg i.p., borate buffer pH 7, 4 h) of 7%, an inhibition in vivo at 40 mg/kg (carragenin edema; 4 h, pH 7, read-out: % inhibition of carragenin edema, 40 mg/kg i.p., borate buffer pH 7, 4 h) of 5% and an inhibition in vivo at 75 mg/kg (carragenin edema; 4 h, pH 7, read-out: % inhibition of carragenin edema, 75 mg/kg i.p., borate buffer pH 7, 4 h) of 0%. It also gave an inhibition in vivo at 100 mg/kg (carragenin edema; 4 h, pH 7, read-out: % inhibition of carragenin edema, 100 mg/kg i.p., borate buffer pH 7, 4 h) of 10%, an inhibition in vivo at 200 mg/kg (carragenin edema; 4 h, pH 7, read-out: % inhibition of carragenin edema, 200 mg/kg i.p., borate buffer pH 7, 4 h) of 8% and an inhibition in vivo at 35 mg/kg (carragenin edema; 5 h, pH 7, read-out: % inhibition of carragenin edema, 35 mg/kg i.p., borate buffer pH 7, 5 h) of 10%. The inhibition in vivo at 40 mg/kg (carragenin edema; 5 h, pH 7, read-out: % inhibition of carragenin edema, 40 mg/kg i.p., borate buffer pH 7, 5 h) was 2%, the inhibition in vivo at 75 mg/kg (carragenin edema; 5 h, pH 7, read-out: % inhibition of carragenin edema, 75 mg/kg i.p., borate buffer pH 7, 5 h) was 7% and the inhibition in vivo at 100 mg/kg (carragenin edema; 5 h, pH 7, read-out: % inhibition of carragenin edema, 100 mg/kg i.p., borate buffer pH 7, 5 h) was 15%. For the same compound, the inhibition in vivo at 200 mg/kg (carragenin edema; 5 h, pH 7, read-out: % inhibition of carragenin edema, 200 mg/kg i.p., borate buffer pH 7, 5 h) was 9%, the inhibition in vivo at 35 mg/kg (carragenin edema; 6 h, pH 7, read-out: % inhibition of carragenin edema, 35 mg/kg i.p., borate buffer pH 7, 6 h) was 14% and the inhibition in vivo at 40 mg/kg (carragenin edema; 6 h, pH 7, read-out: % inhibition of carragenin edema, 40 mg/kg i.p., borate buffer pH 7, 6 h) was 0%. The inhibition in vivo at 75 mg/kg (carragenin edema; 6 h, pH 7, read-out: % inhibition of carragenin edema, 75 mg/kg i.p., borate buffer pH 7, 6 h) was 13%, the inhibition in vivo at 100 mg/kg (carragenin edema; 6 h, pH 7, read-out: % inhibition of carragenin edema, 100 mg/kg i.p., borate buffer pH 7, 6 h) was 5% and the inhibition in vivo at 200 mg/kg (carragenin edema; 6 h, pH 7, read-out: % inhibition of carragenin edema, 200 mg/kg i.p., borate buffer pH 7, 6 h) was 1%. The inhibition in vivo at 35 mg/kg (carragenin edema; read-out: % inhibition of carragenin edema, 35 mg/kg i.p., borate buffer pH 7, 1/2 h) was 26%, the inhibition in vivo at 40 mg/kg (carragenin edema; read-out: % inhibition of carragenin edema, 40 mg/kg i.p., borate buffer pH 7, 1/2 h) was 28% and the inhibition in vivo at 75 mg/kg (carragenin edema; read-out: % inhibition of carragenin edema, 75 mg/kg i.p., borate buffer pH 7, 1/2 h) was 29%. For the same compound, the inhibition in vivo at 100 mg/kg (carragenin edema; read-out: % inhibition of carragenin edema, 100 mg/kg i.p., borate buffer pH 7, 1/2 h) was 23%, the inhibition in vivo at 200 mg/kg (carragenin edema; read-out: % inhibition of carragenin edema, 200 mg/kg i.p., borate buffer pH 7, 1/2 h) was 14% and the inhibition at 100 µM (Aldose Reductase; 10^-4 mole/l) was 93%. The inhibition at 10 µM (Aldose Reductase; 10^-5 mole/l) was 66%, the inhibition at 1 µM (Aldose Reductase; 10^-6 mole/l) was 10% and the solubility (Solubilities in water) was under 100 µg/mL.

— patent publication US4211772A, “Benzopyran glycoside acetals and ketals” (Laboratoires Sarget, priority 1977, dated 1980)
